# Measurements as given in patent US12202818B2, “Compounds and methods for CD73 modulation and indications therefor” (Opna Bio SA, priority 2020, dated 2025).
# Legend:
# [1] = molecular target: T1, human CD73 (Homo sapiens, UniProt P21589); test: Inhibitor activity against CD73 in cell based assay (CD73 expressing CHO-K1 cells); settings: CHO-K1 cells expressing human CD73, 150 μM AMP, 4 hours of incubation; read-out: CHO-K1 CELL_VARIANT: CD73 IC50
# T1 construct: expressed in transfected cells
# T1 sequence (P21589 27-549): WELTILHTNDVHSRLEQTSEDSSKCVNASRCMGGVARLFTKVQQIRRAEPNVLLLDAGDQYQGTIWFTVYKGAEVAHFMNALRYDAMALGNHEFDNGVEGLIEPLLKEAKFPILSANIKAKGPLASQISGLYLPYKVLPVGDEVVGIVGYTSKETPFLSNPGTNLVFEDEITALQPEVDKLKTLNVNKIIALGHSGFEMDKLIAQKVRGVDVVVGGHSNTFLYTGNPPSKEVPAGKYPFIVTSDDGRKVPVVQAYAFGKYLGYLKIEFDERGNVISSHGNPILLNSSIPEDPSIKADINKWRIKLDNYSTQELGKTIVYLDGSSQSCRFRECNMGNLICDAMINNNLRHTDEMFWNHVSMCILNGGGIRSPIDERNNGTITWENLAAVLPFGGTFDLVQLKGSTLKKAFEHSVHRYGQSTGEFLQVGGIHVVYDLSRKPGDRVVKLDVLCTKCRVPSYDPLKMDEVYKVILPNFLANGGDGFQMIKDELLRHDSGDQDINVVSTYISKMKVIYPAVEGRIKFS
# Method in brief: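 Stable human CD73 CHO-K1 cells, 1×10^4/well, exposed to an 8-point 1:3 compound series (top 10 μM, 0.2% DMSO) plus 150 μM AMP for 4 h. Remaining AMP in the supernatant was read by CellTiter-Glo 2.0 luminescence with 1 μM ATP after 30 min at room temperature. IC50 came from nonlinear regression of % inhibition against cell and media-only controls.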
# [2] = molecular target: T2, Human CD73 (amino acid residues 27-549) (Homo sapiens, UniProt P21589); test: CD73 enzymatic assay (luciferase-based indirect assay, CellTiter-Glo); type: biochemical; settings: 0.4 nM CD73, 150 μM AMP, 1 hour at room temperature
# T2 construct: Human CD73 (amino acid residues 27-549); His tag (N); made in house; host or cells: E. coli
# T2 sequence (P21589 27-549): T1 sequence (P21589 27-549)
# Method in brief: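 N-His human CD73 (27-549) expressed in E. coli, 0.4 nM, incubated with 150 μM AMP and compound in 50 mM HEPES pH 7.4, 0.01% Tween-20, 1 h at RT. Remaining AMP read via CellTiter-Glo luminescence with 1 μM ATP after 30 min; IC50 from nonlinear regression of % inhibition.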
IC50 [1],IC50 [2],SMILES
0.001 to 10 µM,0.001 to 10 µM,"O=c1[nH]ncc(N2CC[C@@H](Oc3cc(C4=CCNC4)ccn3)C2)c1Cl [P-0032, (R)-4-chloro-5-(3-((4-(2,5-dihydro-1H-pyrrol-3-yl)pyridin-2-yl)oxy)pyrrolidin-1-yl)pyridazin-3(2H)-one]"
0.001 to 10 µM,0.001 to 10 µM,"O=c1[nH]ncc(N2CC[C@@H](Oc3cc(-c4cnn(C5CCNCC5)c4)ccn3)C2)c1Cl [P-0002, (R)-4-chloro-5-(3-((4-(1-(piperidin-4-yl)-1H-pyrazol-4-yl)pyridin-2-yl)oxy)pyrrolidin-1-yl)pyridazin-3(2H)-one]"
0.001 to 10 µM,0.001 to 10 µM,"Cc1noc(C)c1-c1ccnc(O[C@@H]2CCN(c3cn[nH]c(=O)c3Br)C2)c1 [P-0066, (R)-4-bromo-5-(3-((4-(3,5-dimethylisoxazol-4-yl)pyridin-2-yl)oxy)pyrrolidin-1-yl)pyridazin-3(2H)-one]"
0.001 to 10 µM,0.001 to 10 µM,"Cc1noc(C)c1-c1cc(O[C@H]2CN(c3cn[nH]c(=O)c3Cl)C[C@@H]2F)ccn1 [P-0122, 4-chloro-5-((3S,4S)-3-((2-(3,5-dimethylisoxazol-4-yl)pyridin-4-yl)oxy)-4-fluoropyrrolidin-1-yl)pyridazin-3(2H)-one]"
0.001 to 10 µM,0.001 to 10 µM,"Cc1nn(CC2(F)COC2)c(C)c1-c1ccnc(O[C@@H]2CCN(c3cn[nH]c(=O)c3Cl)C2)c1 [P-0130, (R)-4-chloro-5-(3-((4-(1-((3-fluorooxetan-3-yl)methyl)-3,5-dimethyl-1H-pyrazol-4-yl)pyridin-2-yl)oxy)pyrrolidin-1-yl)pyridazin-3(2H)-one]"
0.001 to 10 µM,0.001 to 10 µM,"Cc1nn(C)c(C)c1-c1ccnc(O[C@@H]2CCN(c3cnn(CCCO)c(=O)c3Cl)C2)c1 [P-0127, (R)-4-chloro-2-(3-hydroxypropyl)-5-(3-((4-(1,3,5-trimethyl-1H-pyrazol-4-yl)pyridin-2-yl)oxy)pyrrolidin-1-yl)pyridazin-3(2H)-one]"
0.001 to 10 µM,0.001 to 10 µM,"COCc1noc(C)c1-c1ccnc(O[C@@H]2CCN(c3cn[nH]c(=O)c3Cl)C2)c1 [P-0150, (R)-4-chloro-5-(3-((4-(3-(methoxymethyl)-5-methylisoxazol-4-yl)pyridin-2-yl)oxy)pyrrolidin-1-yl)pyridazin-3(2H)-one]"
10 to 100 µM,0.001 to 10 µM,"CC(=O)N1CCN(c2ccnc(O[C@@H]3CCN(c4cn[nH]c(=O)c4Cl)C3)c2)[C@H](C)C1 [P-0104, 5-((R)-3-((4-((R)-4-acetyl-2-methylpiperazin-1-yl)pyridin-2-yl)oxy)pyrrolidin-1-yl)-4-chloropyridazin-3(2H)-one]"
0.001 to 10 µM,0.001 to 10 µM,"Cc1nn(C2(CC(N)=O)CCC2)c(C)c1-c1ccnc(O[C@@H]2CCN(c3cn[nH]c(=O)c3Cl)C2)c1 [P-0035, (R)-2-(1-(4-(2-((1-(5-chloro-6-oxo-1,6-dihydropyridazin-4-yl)pyrrolidin-3-yl)oxy)pyridin-4-yl)-3,5-dimethyl-1H-pyrazol-1-yl)cyclobutyl)acetamide]"
0.001 to 10 µM,0.001 to 10 µM,"Cc1cc(NS(=O)(=O)C2CC2)ccc1-c1ccnc(O[C@@H]2CCN(c3cn[nH]c(=O)c3Cl)C2)c1 [P-0210, (R)-N-(4-(2-((1-(5-chloro-6-oxo-1,6-dihydropyridazin-4-yl)pyrrolidin-3-yl)oxy)pyridin-4-yl)-3-methylphenyl)cyclopropane-sulfonamide]"
0.001 to 10 µM,0.001 to 10 µM,"Cc1noc(C)c1-c1cc(O[C@@H]2CCN(c3cn[nH]c(=O)c3Cl)C2)ncn1 [P-0182, (R)-4-chloro-5-(3-((6-(3,5-dimethylisoxazol-4-yl)pyrimidin-4-yl)oxy)pyrrolidin-1-yl)pyridazin-3(2H)-one]"
0.001 to 10 µM,0.001 to 10 µM,"CC(=O)C1CCC(c2ccnc(O[C@@H]3CCN(c4cn[nH]c(=O)c4Cl)C3)c2)CC1 (stereo partly drawn) [P-0060, (R)-5-(3-((4-(4-acetylcyclohexyl)pyridin-2-yl)oxy)pyrrolidin-1-yl)-4-chloropyridazin-3(2H)-one]"
0.001 to 10 µM,0.001 to 10 µM,"Cc1nn(C2COC2)c(C)c1-c1cc(O[C@H]2CN(c3cnn(CCO)c(=O)c3Cl)C[C@@H]2F)ncc1F [P-0007, 4-chloro-5-((3S,4S)-3-((4-(3,5-dimethyl-1-(oxetan-3-yl)-1H-pyrazol-4-yl)-5-fluoropyridin-2-yl)oxy)-4-fluoropyrrolidin-1-yl)-2-(2-hydroxyethyl)pyridazin-3(2H)-one]"
0.001 to 10 µM,0.001 to 10 µM,"CCCNS(=O)(=O)c1ccc(-c2ccnc(O[C@@H]3CCN(c4cn[nH]c(=O)c4Cl)C3)c2)c(C)c1 [P-0240, (R)-4-(2-((1-(5-chloro-6-oxo-1,6-dihydropyridazin-4-yl)pyrrolidin-3-yl)oxy)pyridin-4-yl)-3-methyl-N-propylbenzenesulfonamide]"
0.001 to 10 µM,0.001 to 10 µM,"Cc1nn(C(C)C)c(C)c1-c1ccnc(O[C@@H]2CCN(c3cn[nH]c(=O)c3Cl)C2)c1 [P-0027, (R)-4-chloro-5-(3-((4-(1-isopropyl-3,5-dimethyl-1H-pyrazol-4-yl)pyridin-2-yl)oxy)pyrrolidin-1-yl)pyridazin-3(2H)-one]"
0.001 to 10 µM,0.001 to 10 µM,"N#CC1CCC(c2ccnc(O[C@@H]3CCN(c4cnn(CCO)c(=O)c4Cl)C3)c2)CC1 (stereo partly drawn) [P-0046, (R)-4-(2-((1-(5-chloro-1-(2-hydroxyethyl)-6-oxo-1,6-dihydropyridazin-4-yl)pyrrolidin-3-yl)oxy)pyridin-4-yl)cyclohexane-1-carbonitrile]"
0.001 to 10 µM,0.001 to 10 µM,"Cc1cc(S(C)(=O)=O)ccc1-c1ccnc(O[C@@H]2CCN(c3cn[nH]c(=O)c3Cl)C2)c1 [P-0081, (R)-4-chloro-5-(3-((4-(2-methyl-4-(methylsulfonyl)phenyl)pyridin-2-yl)oxy)pyrrolidin-1-yl)pyridazin-3(2H)-one]"
0.001 to 10 µM,0.001 to 10 µM,"CCCn1nc(C)c(-c2cc(F)nc(O[C@@H]3CCN(c4cn[nH]c(=O)c4Cl)C3)c2)c1C [P-0165, (R)-4-chloro-5-(3-((4-(3,5-dimethyl-1-propyl-1H-pyrazol-4-yl)-6-fluoropyridin-2-yl)oxy)pyrrolidin-1-yl)pyridazin-3(2H)-one]"
0.001 to 10 µM,0.001 to 10 µM,"Cc1nn(CC2(C)COC2)c(C)c1-c1cc(F)nc(O[C@@H]2CCN(c3cn[nH]c(=O)c3Cl)C2)c1 [P-0184, (R)-4-chloro-5-(3-((4-(3,5-dimethyl-1-((3-methyloxetan-3-yl)methyl)-1H-pyrazol-4-yl)-6-fluoropyridin-2-yl)oxy)pyrrolidin-1-yl)pyridazin-3(2H)-one]"
0.001 to 10 µM,0.001 to 10 µM,"Cc1nn(CC(=O)NC2CC2)c(C)c1-c1ccnc(O[C@@H]2CCN(c3cn[nH]c(=O)c3Cl)C2)c1 [P-0040, (R)-2-(4-(2-((1-(5-chloro-6-oxo-1,6-dihydropyridazin-4-yl)pyrrolidin-3-yl)oxy)pyridin-4-yl)-3,5-dimethyl-1H-pyrazol-1-yl)-N-cyclopropylacetamide]"
0.001 to 10 µM,0.001 to 10 µM,"Cc1noc(C)c1-c1cc(F)nc(O[C@H]2CN(c3cn[nH]c(=O)c3Cl)C[C@@H]2F)c1 [P-0189, 4-chloro-5-((3S,4S)-3-((4-(3,5-dimethylisoxazol-4-yl)-6-fluoropyridin-2-yl)oxy)-4-fluoropyrrolidin-1-yl)pyridazin-3(2H)-one]"
0.001 to 10 µM,0.001 to 10 µM,"Cc1noc(C)c1-c1cc(O[C@H]2CN(c3cnn(CCO)c(=O)c3Cl)C[C@@H]2F)ncc1F [P-0132, 4-chloro-5-((3S,4S)-3-((4-(3,5-dimethylisoxazol-4-yl)-5-fluoropyridin-2-yl)oxy)-4-fluoropyrrolidin-1-yl)-2-(2-hydroxyethyl)pyridazin-3(2H)-one]"
0.001 to 10 µM,0.001 to 10 µM,"Cc1noc(C)c1-c1cc(O[C@@H]2CCN(c3cnn(CC(O)CO)c(=O)c3Cl)C2)ncn1 (stereo partly drawn) [P-0140, 4-chloro-2-(2,3-dihydroxypropyl)-5-((R)-3-((6-(3,5-dimethylisoxazol-4-yl)pyrimidin-4-yl)oxy)pyrrolidin-1-yl)pyridazin-3(2H)-one]"
0.001 to 10 µM,0.001 to 10 µM,"Cc1nn(C)c(C)c1-c1ccnc(O[C@@H]2CCN(c3cn[nH]c(=O)c3C#N)C2)c1 [P-0114, (R)-3-oxo-5-(3-((4-(1,3,5-trimethyl-1H-pyrazol-4-yl)pyridin-2-yl)oxy)pyrrolidin-1-yl)-2,3-dihydropyridazine-4-carbonitrile]"
0.001 to 10 µM,0.001 to 10 µM,"Cc1cc(S(=O)(=O)NC2CC2)ccc1-c1cc(F)nc(O[C@@H]2CCN(c3cn[nH]c(=O)c3Cl)C2)c1 [P-0217, (R)-4-(2-((1-(5-chloro-6-oxo-1,6-dihydropyridazin-4-yl)pyrrolidin-3-yl)oxy)-6-fluoropyridin-4-yl)-N-cyclopropyl-3-methylbenzenesulfonamide]"
